Assay results from patent US12377076B2, “Compounds for treating lymphoma or a T-cell malignant disease” (Purdue Pharma L.P., priority 2018, dated 2025).
Values joined by “and” are separate entries in the source; they are usually repeats but may differ in a detail not shown here. Equal values may be shown once. Read-outs that look alike come from different tables or passages of the source.

Columns and labels:
[1] = PK assessment: plasma tinostamustine and metabolites M2 and M8, non-compartmental analysis and population PK model; format: in vivo, human; conditions: for AUC / Cmax / Tmax: day one, Mean (SD)
Description: Plasma samples were collected to determine the concentrations of tinostamustine and its metabolites (labelled M2 and M8) by a method fully validated according to the relevant guidelines. The PK profiles of tinostamustine in plasma were assessed in each patient in the escalation stage of the study, in cycle 1 only.
Patients of all cohorts and over all dose levels were sampled according to the following schedule: 0.5 hours prior to dose administration, and at 15, 30 and 45 minutes and 1, 1.25, 1.50, 2, 3, 8, 24, 48 and 72 hours from the start of tinostamustine infusion. Plasma samples were collected according to the Laboratory Manual for the determination of tinostamustine and metabolites M2 and M8 concentrations using a method fully validated according to the relevant guidelines.
A compartmental population PK analysis of tinostamustine was conducted to characterize its concentration-time profiles and its dependency on patient factors. For the analysis, the 24 hours plasma concentrations of tinostamustine at day one from 36 patients was used from whom the data was available. The concentration-time profiles were best described with a two-compartmental model with first order clearance from the central compartment.

[2] = system: neutrophils; test: PK/PD safety modelling: dose-nadir relationship of blood cell counts, neutrophils; format: in vivo, human; conditions: (% CV) in table
Description: The obtained exposure parameters (Cmax and AUC) and PK profiles from individual patients and the respective haematological laboratory data were collected over the treatment duration and analysed regarding the relationship to peripheral blood cell counts (lymphocytes, neutrophils, platelets).
The nadir was defined as the lowest blood cell count observed after the first administration. The nadir was extracted irrespective of the treatment duration, thus, the analysis data set included patients who received only one dose and patients who received multiple treatment cycles with tinostamustine. The baseline blood cell count, which was the count before the first administration, was included in the analysis as the cell count at dose, Cmax or AUC equal to 0. Thus, it was assumed that the baseline blood cell count was the effect level without treatment with tinostamustine. With an exploratory analysis all observations each predictor-nadir relationship was fitted with a least-squares method in R. The dose-nadir relationship was further investigated with a non-linear mixed effects approach. The advantage of the non-linear mixed effects approach compared to the exploratory analysis was that different external and patient factors could be investigated at the same time and the between patient variability can be described. […]

[3] = system: patients with HL; test: Tumour assessment: response to treatment, patients with HL; format: in vivo, human
Description: (§1) Response to treatment included evaluation of overall response rate (patients with a CR plus patients with a PR), clinical benefit (CB) rate (patients with CR plus patients with PR plus patients with stable disease (SD)), progression free survival, and overall survival according to the relevant response criteria.

[4] = system: lymphoma; conditions: in vitro and in vivo models; cited from earlier work
[5] = system: patients with MM; test: Tumour assessment: response to treatment, patients with multiple myeloma; format: in vivo, human; conditions: 19 patients with MM
Description: as §1

[6] = human, plasma, intravenous, 20 mg/m^2, 20 mg/m^2, infusion 60 minutes
[7] = human, plasma, intravenous, 40 mg/m^2, 40 mg/m^2, infusion 60 minutes
[8] = human, plasma, intravenous, 60 mg/m^2, 60 mg/m^2, infusion 30 minutes
[9] = human, plasma, intravenous, 60 mg/m^2, 60 mg/m^2, infusion 60 minutes
[10] = human, plasma, intravenous, 80 mg/m^2, 80 mg/m^2, infusion 45 minutes
[11] = human, plasma, intravenous, 80 mg/m^2, 80 mg/m^2, infusion 60 minutes
[12] = human, plasma, intravenous, 100 mg/m^2, 100 mg/m^2, infusion 60 minutes
[13] = human, plasma, intravenous, 120 mg/m^2, 120 mg/m^2, infusion 60 minutes

Q: Which “dose linearity of PK” value ([1]; dose range 20-120 mg/m^2 over 60 minutes infusion time) does the source give for `Cn1c(CCCCCCC(=O)NO)nc2cc(N(CCCl)CCCl)ccc21` [tinostamustine] here?
A: linear

Q: And the “dose linearity of PK” value ([1]; dose range 20 to 120 mg/m^2, infusion times of 30 to 60 minutes)?
A: dose-linear

Q: What about the AUC [1, 6] of the same compound?
A: 193 ng·h/mL

Q: And the Cmax [1, 6]?
A: 241 ng/mL

Q: And the Tmax [1, 6]?
A: 48 min

Q: And the AUC [1, 7]?
A: 932 ng·h/mL

Q: What about the Cmax [1, 7] of the same compound?
A: 1160 ng/mL

Q: And the Tmax [1, 7]?
A: 24 min

Q: What about the AUC [1, 8] of the same compound?
A: 627 ng·h/mL

Q: And the Cmax [1, 8]?
A: 1720 ng/mL

Q: And the Tmax [1, 8]?
A: 18 min

Q: And the AUC [1, 9]?
A: 592 ng·h/mL

Q: And the Cmax [1, 9]?
A: 640 ng/mL

Q: And the Tmax [1, 9]?
A: 60 min

Q: And the AUC [1, 10]?
A: 794 ng·h/mL

Q: And the Cmax [1, 10]?
A: 1280 ng/mL

Q: And the Tmax [1, 10]?
A: 24 min

Q: What about the AUC [1, 11] of the same compound?
A: 902 ng·h/mL

Q: And the Cmax [1, 11]?
A: 1060 ng/mL

Q: What about the Tmax [1, 11] of the same compound?
A: 48 min

Q: And the AUC [1, 12]?
A: 1660 ng·h/mL

Q: And the Cmax [1, 12]?
A: 1960 ng/mL

Q: What about the Tmax [1, 12] of the same compound?
A: 42 min

Q: What about the AUC [1, 13] of the same compound?
A: 1640 ng·h/mL

Q: And the Cmax [1, 13]?
A: 1770 ng/mL

Q: What about the Tmax [1, 13] of the same compound?
A: 48 min

Q: What about the half-life ([1]; human, plasma, intravenous, population PK, two-compartmental model, 36 patients, read-out: B half-life (converted)) of the same compound?
A: 216 min

Q: What about the Vd ([1]; human, plasma, intravenous, population PK, two-compartmental model, 36 patients, read-out: Central volume of distribution) of the same compound?
A: 20.6 L

Q: And the half-life ([1]; human, plasma, intravenous, population PK, two-compartmental model, 36 patients, read-out: α half-life)?
A: 27 min

Q: And the “Peripheral volume of distribution” value ([1]; population PK, two-compartmental model, 36 patients)?
A: 11.5 L

Q: And the “time to maximum concentrations” value ([1]; shorter infusions)?
A: around 30 minutes

Q: And the “EC50 (dose required to reduce the cell count by 50%)” value [2]?
A: 49.1 mg/m^2 and 49.1 (70%) mg/m^2

Q: And the response ([3]; 1 patient with refractory HL treated with 120 m/m^2 over 6 cycles)?
A: achieved a CR

Q: What about the “patients having a response from SD to CR” value ([3]; 10 patients with HL) of the same compound?
A: 70%

Q: What about the activity against lymphoma [4] of the same compound?
A: potent activity

Q: And the CBR [5]?
A: 42%

Q: What about the ORR [5] of the same compound?
A: 11%

Q: What about the “best response CR” value [5] of the same compound?
A: 0 patients

Q: And the “best response PR” value [5]?
A: 11%

Q: And the “best response SD” value [5]?
A: 31%

Q: What about the “best response of PD” value [5] of the same compound?
A: 47%
